One data set concerns the target human FGFR1 (Homo sapiens (Human), UniProt P11362). As to the kind of experiment: 33P isotope-labeled kinase activity test (Reaction Biology Corp), FGFR1. Format: biochemical. As to conditions: ATP 5 μM. Here is the method: (§1) The IC50 value was determined using ^33P isotope-labeled kinase activity test (Reaction Biology Corp) to evaluate the inhibitory ability of the compounds to be tested on human FGFR1, FGFR2 and VEGFR2.
(§2) Buffer conditions: 20 mM Hepes (pH 7.5), 10 mM MgCl2, 1 mM EGTA, 0.02% Brij35, 0.02 mg/mL BSA, 0.1 mM Na3VO4, 2 mM DTT, 1% DMSO.
(§3) Test steps: At room temperature, the compounds to be tested were dissolved in DMSO to prepare a 10 mM solution for use. The substrate was dissolved in the newly-prepared buffer, and the kinase to be tested was added thereto and mixed well. The DMSO solution in which the compounds to be tested were dissolved was added to the above-mentioned homogeneous reaction mixture using acoustic technology (Echo 550). […] After incubating for 15 minutes, ^33P-ATP (activity: 0.01 μCi/μL, with corresponding concentration listed in Table 4) was added to the reaction mixture to start the reaction. […] The kinase activity data was expressed by comparing the kinase activity of the groups containing the compounds to be tested with that of the blank group (containing only DMSO).

A further data set deals with human VEGFR2 (Homo sapiens (Human), UniProt P35968). The data set can be described thus: 33P isotope-labeled kinase activity test (Reaction Biology Corp), VEGFR2. Format: biochemical. As to conditions: ATP 10 μM. As for the experimental part:
as §1, §2, §3

The next data set has as its target human FGFR2 (Homo sapiens (Human), UniProt P21802). As to the kind of experiment: 33P isotope-labeled kinase activity test (Reaction Biology Corp), FGFR2. The format is biochemical. As to conditions: ATP 5 μM. Here is the method:
as §1, §2, §3

Data set [1] is described as follows: Evaluation of the pharmacokinetics in female Balb/c mice (IV and PO). As to conditions: for Tlast / AUC(0-inf) / AUC(0-t) / clearance / half-life / MRT last / Vd / bioavailability / Tmax / C0 / Cmax: female Balb/c mice; for AUC(0-inf) / AUC(0-t) / clearance / half-life / MRT last / Vd / bioavailability / Tmax / C0 / Cmax: mouse, plasma; for MRT last: read-out: MRT0-last; for Vd: read-out: Vdss; for bioavailability: read-out: F (bioavailability). Format: in vivo. As for the experimental part:
[…] […] About 30 μL blood samples were collected from the jugular vein at 0.0833, 0.25, 0.5, 1.0, 2.0, 4.0, 8.0, 24 h after administration and from the tail vein at 0.25, 0.5, 1.0, 2.0, 4.0, 8.0, 24 h after administration, and the blood samples were put in an anticoagulation tube containing EDTA-K2, the plasma was separated by centrifugation. The LC-MS/MS method was used to determine the blood drug concentration, the WinNonlin™ Version 6.3 (Pharsight, Mountain View, CA) pharmacokinetic software was used to calculate the relevant pharmacokinetic parameters by the non-compartmental model linear logarithmic ladder method.

The subject of data set [2] is human gastric cancer SNU-16. The data set can be described thus: Anti-tumor activity in mouse subcutaneous xenograft tumor model of human gastric cancer SNU-16. The format is in vivo, nude mice. As to conditions: PO 10/20/40 mg/kg QD (20 mg/kg from day 8, 40 mg/kg from day 17). Here is the method: To study the anti-tumor effect of the compounds of the present disclosure in a mouse subcutaneous xenograft tumor model of human gastric cancer SNU-16.
Preparation of tumor tissues: SNU-16 cells were routinely cultured in an RPMI-1640 culture medium containing 10% fetal bovine serum under the conditions of 5% CO2, 37° C. and saturated humidity. According to cell growth, the cells were passaged or refilled 1 to 2 times a week with a passage ratio of 1:3 to 1:4.
SNU-16 cells at the logarithmic growth phase were collected, counted and then resuspended in a 50% serum-free RPMI-1640 culture medium and 50% Matrigel, and cell concentration was adjusted to 4×10^7 cells/mL; the cells were placed in an ice box, and the cell suspension was suctioned with a 1 mL syringe, and subcutaneously injected into the anterior right axillary of nude mice, each animal was inoculated with 200 μL (8×10^6 cells/mouse) to establish a SNU-16 xenograft model. The animal status was observed regularly, and the tumor diameter was measured with an electronic vernier caliper. […]
3) The tumor diameter was measured twice a week to calculate the tumor volume, and the animal body weight was weighed and recorded. […]
The anti-tumor efficacy of the compounds was evaluated by TGI (%) or relative tumor proliferation rate T/C (%). […] The relative tumor volume (RTV) was calculated according to the results of the tumor measurement. […]
On the technique in general: A xenograft is tissue or cells of one species grown in another, often human tumour cells in immunodeficient mice.

Where a name gives a salt, the structure may show the parent alone. Read-outs that look alike come from different tables or passages of the source.

human FGFR1, sequence (P11362 22-822): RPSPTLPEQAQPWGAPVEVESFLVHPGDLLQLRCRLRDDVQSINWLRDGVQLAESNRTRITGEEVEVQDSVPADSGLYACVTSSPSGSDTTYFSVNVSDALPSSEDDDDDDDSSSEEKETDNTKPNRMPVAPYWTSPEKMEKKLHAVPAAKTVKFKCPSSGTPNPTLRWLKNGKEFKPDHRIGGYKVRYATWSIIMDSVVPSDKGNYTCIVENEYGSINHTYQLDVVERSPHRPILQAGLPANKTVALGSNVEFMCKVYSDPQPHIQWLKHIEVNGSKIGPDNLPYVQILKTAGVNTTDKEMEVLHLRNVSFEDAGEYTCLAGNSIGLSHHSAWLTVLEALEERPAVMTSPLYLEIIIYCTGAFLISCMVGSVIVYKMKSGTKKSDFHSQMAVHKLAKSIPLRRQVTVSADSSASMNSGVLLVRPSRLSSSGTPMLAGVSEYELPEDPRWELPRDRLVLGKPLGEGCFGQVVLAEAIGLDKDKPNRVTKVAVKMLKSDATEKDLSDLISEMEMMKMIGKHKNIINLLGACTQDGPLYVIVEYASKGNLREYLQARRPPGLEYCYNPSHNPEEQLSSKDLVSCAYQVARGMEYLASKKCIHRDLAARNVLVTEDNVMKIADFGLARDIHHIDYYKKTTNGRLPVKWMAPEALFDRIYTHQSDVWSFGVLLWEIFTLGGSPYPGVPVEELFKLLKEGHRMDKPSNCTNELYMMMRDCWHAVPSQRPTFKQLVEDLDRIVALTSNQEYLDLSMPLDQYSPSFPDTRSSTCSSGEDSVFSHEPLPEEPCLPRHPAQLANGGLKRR
human FGFR2, sequence (P21802 22-821): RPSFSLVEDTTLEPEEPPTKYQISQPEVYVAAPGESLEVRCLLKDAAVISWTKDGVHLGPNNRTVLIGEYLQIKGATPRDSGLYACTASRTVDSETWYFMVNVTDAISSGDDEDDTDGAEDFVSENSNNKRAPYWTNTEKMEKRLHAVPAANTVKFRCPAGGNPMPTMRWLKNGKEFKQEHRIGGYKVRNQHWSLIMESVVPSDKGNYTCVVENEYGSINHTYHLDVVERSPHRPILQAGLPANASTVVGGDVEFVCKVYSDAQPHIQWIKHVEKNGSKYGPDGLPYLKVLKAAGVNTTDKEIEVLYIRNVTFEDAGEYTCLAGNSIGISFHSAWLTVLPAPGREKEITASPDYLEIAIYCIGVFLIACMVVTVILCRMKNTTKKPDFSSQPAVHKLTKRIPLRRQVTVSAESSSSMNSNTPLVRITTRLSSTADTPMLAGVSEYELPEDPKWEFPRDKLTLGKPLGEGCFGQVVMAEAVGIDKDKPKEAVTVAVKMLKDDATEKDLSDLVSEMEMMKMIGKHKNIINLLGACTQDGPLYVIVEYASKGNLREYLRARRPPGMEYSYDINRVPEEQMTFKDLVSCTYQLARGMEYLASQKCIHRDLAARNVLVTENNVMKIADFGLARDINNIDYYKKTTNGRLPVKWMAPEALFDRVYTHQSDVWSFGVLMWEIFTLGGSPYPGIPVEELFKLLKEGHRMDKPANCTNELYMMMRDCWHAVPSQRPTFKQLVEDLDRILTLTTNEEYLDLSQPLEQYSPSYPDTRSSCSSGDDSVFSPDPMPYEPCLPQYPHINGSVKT
human VEGFR2, sequence (P35968 20-1356): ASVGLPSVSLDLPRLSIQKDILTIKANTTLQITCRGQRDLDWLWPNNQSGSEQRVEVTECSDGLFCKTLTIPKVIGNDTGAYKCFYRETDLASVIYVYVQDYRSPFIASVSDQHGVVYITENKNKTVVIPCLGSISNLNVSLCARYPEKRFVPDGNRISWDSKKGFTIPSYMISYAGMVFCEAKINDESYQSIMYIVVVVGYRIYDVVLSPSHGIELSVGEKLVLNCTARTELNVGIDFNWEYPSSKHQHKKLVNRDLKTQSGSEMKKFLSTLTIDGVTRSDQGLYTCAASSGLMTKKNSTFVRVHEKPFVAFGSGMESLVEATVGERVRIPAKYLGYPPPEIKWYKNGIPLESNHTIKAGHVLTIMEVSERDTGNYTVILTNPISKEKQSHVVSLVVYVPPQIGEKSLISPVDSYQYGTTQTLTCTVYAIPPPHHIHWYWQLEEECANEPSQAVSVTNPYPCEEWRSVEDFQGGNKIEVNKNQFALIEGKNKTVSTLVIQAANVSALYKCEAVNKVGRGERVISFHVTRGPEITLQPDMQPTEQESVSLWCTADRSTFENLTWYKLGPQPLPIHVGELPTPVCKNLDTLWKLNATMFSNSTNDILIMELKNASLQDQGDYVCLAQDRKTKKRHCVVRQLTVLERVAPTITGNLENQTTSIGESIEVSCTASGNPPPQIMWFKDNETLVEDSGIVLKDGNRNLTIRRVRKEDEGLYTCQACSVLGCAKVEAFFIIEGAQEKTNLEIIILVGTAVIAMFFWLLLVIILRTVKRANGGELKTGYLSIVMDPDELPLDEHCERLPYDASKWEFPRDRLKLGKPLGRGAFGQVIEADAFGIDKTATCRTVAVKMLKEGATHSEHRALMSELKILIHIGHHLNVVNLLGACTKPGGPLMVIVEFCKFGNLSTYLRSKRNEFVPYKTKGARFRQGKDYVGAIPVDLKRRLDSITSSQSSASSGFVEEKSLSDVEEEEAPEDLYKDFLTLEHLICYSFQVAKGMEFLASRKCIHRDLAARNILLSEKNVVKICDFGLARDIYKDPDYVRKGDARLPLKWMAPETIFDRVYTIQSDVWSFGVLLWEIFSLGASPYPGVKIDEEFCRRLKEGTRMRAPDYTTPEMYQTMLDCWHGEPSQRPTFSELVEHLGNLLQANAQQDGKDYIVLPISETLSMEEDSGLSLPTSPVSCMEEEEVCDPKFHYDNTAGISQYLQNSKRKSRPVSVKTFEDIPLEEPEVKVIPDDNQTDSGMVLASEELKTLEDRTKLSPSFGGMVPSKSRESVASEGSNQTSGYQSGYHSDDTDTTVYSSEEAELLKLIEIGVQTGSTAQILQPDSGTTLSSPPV

The IC50 is the midpoint of a concentration-inhibition curve. Low readings indicate greater potency in that assay, high ones weaker potency in that assay. `Cn1cc(-c2ccn3c(-c4cc(NS(C)(=O)=O)cc(-c5ccc(F)cc5F)n4)cnc3c2)cn1` [Formate of compound C, reference compound]: the IC50 against human FGFR1 was 724 nM; against human VEGFR2, 5580 nM.
Consider `Cc1cc(F)ccc1-c1cc(-c2cnc3cc(-c4cnn(C)c4)ccn23)cc(NS(=O)(=O)C2CC2)n1` [Trifluoroacetate salt of compound 2], for which the IC50 at human VEGFR2 turned out to be 67.3 nM; against human FGFR2, 46.1 nM.
Turning to `Cn1cc(-c2ccn3c(-c4cc(NCC5COC(C)(C)O5)nc(-c5ccc(F)cc5F)c4)cnc3c2)cn1` (stereo not drawn) [Compound 11], the IC50 was found to be 7.57 nM on human VEGFR2 and 2.27 nM on human FGFR2.
For `CCS(=O)(=O)Nc1cc(-c2cnc3cc(-c4cnn(C)c4)ccn23)cc(-c2ccc(F)cc2F)n1` [Trifluoroacetate salt of compound 6], in that order: 8.09 nM and 7.36 nM.
`Cn1cc(-c2ccn3c(-c4cc(NC5CCOCC5)nc(-c5ccc(F)cc5F)c4)cnc3c2)cn1` [Compound 10] came in with an IC50 on human FGFR2 of 17.1 nM.
With `Cc1c(-c2ccn3c(-c4cc(NS(C)(=O)=O)nc(-c5ccc(F)cc5F)c4)cnc3c2)cnn1C` [Trifluoroacetate salt of compound 13], it took 11.1 nM to reach half-maximal inhibition against human VEGFR2 (IC50).
With `CCOC(=O)Nc1cc(-c2cnc3cc(-c4cnn(C)c4C)ccn23)cc(-c2ccc(F)cc2F)n1` [Trifluoroacetate salt of compound 12], the results for the IC50 against human VEGFR2 and at human FGFR2 were 9.27 nM and 19.4 nM, respectively.
In the case of `Cn1cc(-c2ccn3c(-c4cc(NCC(C)(C)O)nc(-c5ccc(F)cc5F)c4)cnc3c2)cn1` [Compound 9], the IC50 was found to be 3.73 nM against human VEGFR2 and 4.92 nM against human FGFR2.
The corresponding values for `Cn1cc(-c2ccc3c(c2)ncn3-c2cc(NS(C)(=O)=O)cc(-c3ccc(F)cc3F)c2)cn1` [Trifluoroacetate of compound B, reference compound] are 11.8 nM and 22.6 nM.
For `CCOC(=O)Nc1cc(-c2cnc3cc(-c4cnn(C)c4)ccn23)cc(-c2ccc(F)cc2C)n1` [Trifluoroacetate salt of compound 4], in that order: 24.3 nM and 45.2 nM.
What is called AUC(0-inf) is the area under the concentration-time curve extrapolated to infinity. The AUC(0-t) is the area under the concentration-time curve up to a stated or last time point. A low value points to low exposure. Usually half-life stands for how long it takes for the measured level to halve. The bioavailability is the share of a dose that reaches the circulation, judged against a reference dose that is usually intravenous. As a reminder, the Tmax is the time at which the peak concentration occurs. As usually defined, the Cmax is the peak of the concentration-time curve. `Cn1cc(-c2ccn3c(-c4cc(NS(=O)(=O)C5CC5)nc(-c5ccc(F)cc5F)c4)cnc3c2)cn1` [Trifluoroacetate salt of compound 1] showed an IC50 on human FGFR1 of 4.55 nM. Besides, the midpoint of inhibition against human VEGFR2, the IC50, lay at 3.82 nM. In addition, the midpoint of inhibition against human FGFR2, the IC50, lay at 2.86 nM. Also, in data set [1] (IV 2 mg/kg), the Tlast was 8.00 h, the AUC(0-inf) amounted to 13.7 µM·h, the AUC(0-t) was found to be 13.3 µM·h and the clearance came out at 4.82 mL/min/kg. Besides, in data set [1] (IV 2 mg/kg), the half-life is 96 min, the MRT last came out at 2.07 h, the Vd was found to be 0.667 L/kg and the C0 stood at 7530 nM. Moreover, in data set [1] (IV, mice), the “AUC of intravenous drug exposure compared with the trifluoroacetate of control compound A” value was “doubled” and the “plasma clearance rate compared with the trifluoroacetate of control compound A” value was “nearly decreased the plasma clearance rate by 1 time”. In data set [1] (PO 10 mg/kg), the Tlast is 8.00 h, the AUC(0-inf) turned out to be 26.9 µM·h, the AUC(0-t) was 23.6 µM·h and the Tmax was determined as 1 h. Besides, in data set [1] (PO 10 mg/kg), the half-life was 150 min, the MRT last amounted to 3.12 h and the concentration peaked (Cmax) at 5300 nM. Besides, the “oral absorption drug exposure compared with the trifluoroacetate of control compound A” value in data set [1] (PO, mice) was “nearly doubled”. Moreover, in data set [1] (PO 10 mg/kg vs IV 2 mg/kg), the bioavailability turned out to be 39.4%.
For `Cn1cc(-c2ccn3c(-c4cc(NS(C)(=O)=O)nc(-c5ccc(F)cc5F)c4)cnc3c2)cn1` [Trifluoroacetate salt of compound 7], on human VEGFR2, it took 2.94 nM to reach half-maximal inhibition (IC50). This compound also came in with an IC50 on human FGFR2 of 3.22 nM. In data set [1] (IV 0.2 mg/kg), the Tlast is listed as 4.00 h, the AUC(0-inf) amounted to 0.871 µM·h, the AUC(0-t) is 0.81 µM·h and the clearance was determined as 7.96 mL/min/kg. Besides, in data set [1] (IV 0.2 mg/kg), the half-life was 58.1 min, the MRT last worked out at 1.08 h, the Vd was determined as 0.661 L/kg and the C0 came to 735 nM. For the same compound, in data set [1] (PO 1 mg/kg), the Tlast is 8.00 h, the AUC(0-inf) came out at 2.58 µM·h, the AUC(0-t) amounted to 2.53 µM·h and the Tmax worked out at 1 h. Further, in data set [1] (PO 1 mg/kg), the half-life was 79.8 min, the MRT last came out at 2.35 h and the Cmax turned out to be 973 nM. The bioavailability in data set [1] (PO 1 mg/kg vs IV 0.2 mg/kg) amounted to 59.3%. Also, in data set [2], the “T/C (%) (relative tumor proliferation rate) D25” value was 31% and the “TGI (%) (tumor growth inhibition rate) D25” value is 69%.
Turning to `CCCS(=O)(=O)Nc1cc(-c2cnc3cc(-c4cnn(C)c4)ccn23)cc(-c2ccc(F)cc2F)n1` [Trifluoroacetate salt of compound 8], the results for the IC50 on human VEGFR2 and against human FGFR2 were 14.7 nM and 7.18 nM, respectively.
The corresponding values for `CCOC(=O)Nc1cc(-c2cnc3cc(-c4cnn(C)c4)ccn23)cc(-c2ccc(F)cc2F)n1` [Trifluoroacetate salt of compound 3] are 1.99 nM and 3.26 nM.
With `Cn1cc(-c2ccc3c(c2)ncn3-c2cc(NS(=O)(=O)C3CC3)cc(-c3ccc(F)cc3F)c2)cn1` [Trifluoroacetate of compound A, reference compound], the midpoint of inhibition against human FGFR1, the IC50, lay at 22.3 nM. In addition, in data set [1] (IV 0.2 mg/kg), the Tlast came to 4.00 h, the AUC(0-inf) came to 0.717 µM·h, the AUC(0-t) came to 0.663 µM·h and the clearance came to 9.2 mL/min/kg. For the same compound, in data set [1] (IV 0.2 mg/kg), the half-life was 64.8 min, the MRT last stood at 1.21 h, the Vd is 0.85 L/kg and the C0 was 563 nM. In addition, in data set [1] (PO 1 mg/kg), the Tlast was 8.00 h, the AUC(0-inf) turned out to be 1.44 µM·h, the AUC(0-t) amounted to 1.41 µM·h and the Tmax came to 1 h. In data set [1] (PO 1 mg/kg), the half-life is 84 min, the MRT last was 2.76 h and the peak level (Cmax) was 469 nM. For the same compound, in data set [1] (PO 1 mg/kg vs IV 0.2 mg/kg), the bioavailability is 40.3%.

The values above are taken from patent US12378241B2, “Pyridine derivative as FGFR and VEGFR dual inhibitors” (CGeneTech (Suzhou,China) CO., Ltd., priority 2019, dated 2025).
